In ChEMBL document CHEMBL2046376, “Synthesis and antimicrobial activity of amide derivatives of polyether antibiotic-salinomycin” (2012):
≈ marks a conversion by molar mass, not a printed value. Calls of active or inactive are those of the source. The calls are words filed in the database; no cut-off is given here.

Experiments:
Format in all cases: functional
[1] = system: Candida albicans; test: Antifungal activity against Candida albicans ATCC 90028 after 24 hrs by twofold serial agar dilution technique
[2] = system: Bordetella bronchiseptica; test: Antibacterial activity against Bordetella bronchiseptica ATCC 4617 after 18 hrs by twofold serial agar dilution technique
[3] = system: Proteus vulgaris; test: Antibacterial activity against Proteus vulgaris NCTC 4635 after 18 hrs by twofold serial agar dilution technique
[4] = system: Staphylococcus aureus; test: Antibacterial activity against hospital-acquired methicillin-sensitive Staphylococcus aureus 445/11 after 18 hrs by twofold serial agar dilution technique; details: 445/11, 18 h
[5] = system: Staphylococcus aureus; test: Antibacterial activity against hospital-acquired methicillin-resistant Staphylococcus aureus 452/11 after 18 hrs by twofold serial agar dilution technique; details: 452/11, 18 h
[6] = system: Staphylococcus aureus; test: Antibacterial activity against hospital-acquired methicillin-sensitive Staphylococcus aureus 440/11 after 18 hrs by twofold serial agar dilution technique; details: 440/11, 18 h
[7] = system: Staphylococcus aureus; test: Antibacterial activity against hospital-acquired methicillin-sensitive Staphylococcus aureus 443/11 after 18 hrs by twofold serial agar dilution technique; details: 443/11, 18 h
[8] = system: Staphylococcus aureus; test: Antibacterial activity against hospital-acquired methicillin-sensitive Staphylococcus aureus 447/11 after 18 hrs by twofold serial agar dilution technique; details: 447/11, 18 h
[9] = system: Staphylococcus epidermidis; test: Antibacterial activity against Staphylococcus epidermidis ATCC 35984 after 18 hrs by twofold serial agar dilution technique; details: ATCC 35984, 18 h
[10] = system: Staphylococcus aureus; test: Antibacterial activity against hospital-acquired methicillin-resistant Staphylococcus aureus 451/11 after 18 hrs by twofold serial agar dilution technique; details: 451/11, 18 h
[11] = system: Staphylococcus aureus; test: Antibacterial activity against Staphylococcus aureus ATCC 6538 after 18 hrs by twofold serial agar dilution technique; details: ATCC 6538, 18 h
[12] = system: Staphylococcus epidermidis; test: Antibacterial activity against Staphylococcus epidermidis ATCC 12228 assessed as zone of inhibition at 400 ug/disc after 18 hrs by disc diffusion method; details: ATCC 12228, 18 h, read-out: DIZ
[13] = system: Staphylococcus aureus; test: Antibacterial activity against hospital-acquired methicillin-resistant Staphylococcus aureus 399/10 after 18 hrs by twofold serial agar dilution technique; details: 399/10, 18 h
[14] = system: Staphylococcus epidermidis; test: Antibacterial activity against Staphylococcus epidermidis ATCC 35984 assessed as zone of inhibition at 400 ug/disc after 18 hrs by disc diffusion method; details: ATCC 35984, 18 h, read-out: DIZ
[15] = system: Escherichia coli; test: Antibacterial activity against Escherichia coli ATCC 10538 after 18 hrs by twofold serial agar dilution technique
[16] = system: Staphylococcus aureus; test: Antibacterial activity against Staphylococcus aureus ATCC 29213 assessed as zone of inhibition at 400 ug/disc after 18 hrs by disc diffusion method; details: ATCC 29213, 18 h, read-out: DIZ
[17] = system: Escherichia coli; test: Antibacterial activity against Escherichia coli NCTC 8196 after 18 hrs by twofold serial agar dilution technique
[18] = system: Staphylococcus aureus; test: Antibacterial activity against hospital-acquired methicillin-sensitive Staphylococcus aureus 449/11 after 18 hrs by twofold serial agar dilution technique; details: 449/11, 18 h
[19] = system: Staphylococcus aureus; test: Antibacterial activity against hospital-acquired methicillin-resistant Staphylococcus aureus 482/11 after 18 hrs by twofold serial agar dilution technique; details: 482/11, 18 h
[20] = system: Staphylococcus aureus; test: Antibacterial activity against Staphylococcus aureus ATCC 6538 assessed as zone of inhibition at 400 ug/disc after 18 hrs by disc diffusion method; details: ATCC 6538, 18 h, read-out: DIZ
[21] = system: Staphylococcus aureus; test: Antibacterial activity against hospital-acquired methicillin-resistant Staphylococcus aureus 400/10 after 18 hrs by twofold serial agar dilution technique; details: 400/10, 18 h
[22] = system: Pseudomonas aeruginosa; test: Antibacterial activity against Pseudomonas aeruginosa ATCC 15442 after 18 hrs by twofold serial agar dilution technique
[23] = system: Staphylococcus aureus; test: Antibacterial activity against hospital-acquired methicillin-resistant Staphylococcus aureus 394/10 after 18 hrs by twofold serial agar dilution technique; details: 394/10, 18 h
[24] = system: Candida albicans; test: Antifungal activity against Candida albicans ATCC 10231 after 24 hrs by twofold serial agar dilution technique
[25] = system: Pseudomonas aeruginosa; test: Antibacterial activity against Pseudomonas aeruginosa ATCC 27853 after 18 hrs by twofold serial agar dilution technique
[26] = system: Staphylococcus aureus; test: Antibacterial activity against hospital-acquired methicillin-sensitive Staphylococcus aureus 446/11 after 18 hrs by twofold serial agar dilution technique; details: 446/11, 18 h
[27] = system: Staphylococcus aureus; test: Antibacterial activity against hospital-acquired methicillin-resistant Staphylococcus aureus 393/10 after 18 hrs by twofold serial agar dilution technique; details: 393/10, 18 h
[28] = system: Pseudomonas aeruginosa; test: Antibacterial activity against Pseudomonas aeruginosa NCTC 6749 after 18 hrs by twofold serial agar dilution technique
[29] = system: Staphylococcus aureus; test: Antibacterial activity against hospital-acquired methicillin-sensitive Staphylococcus aureus 441/11 after 18 hrs by twofold serial agar dilution technique; details: 441/11, 18 h
[30] = system: Escherichia coli; test: Antibacterial activity against Escherichia coli ATCC 25922 after 18 hrs by twofold serial agar dilution technique
[31] = system: Staphylococcus aureus; test: Antibacterial activity against hospital-acquired methicillin-resistant Staphylococcus aureus 401/10 after 18 hrs by twofold serial agar dilution technique; details: 401/10, 18 h
[32] = system: Staphylococcus aureus; test: Antibacterial activity against Staphylococcus aureus ATCC 25923 assessed as zone of inhibition at 400 ug/disc after 18 hrs by disc diffusion method; details: ATCC 25923, 18 h, read-out: DIZ
[33] = system: Staphylococcus epidermidis; test: Antibacterial activity against Staphylococcus epidermidis ATCC 12228 after 18 hrs by twofold serial agar dilution technique; details: ATCC 12228, 18 h
[34] = system: Staphylococcus aureus; test: Antibacterial activity against hospital-acquired methicillin-sensitive Staphylococcus aureus 444/11 after 18 hrs by twofold serial agar dilution technique; details: 444/11, 18 h
[35] = system: Staphylococcus aureus; test: Antibacterial activity against hospital-acquired methicillin-resistant Staphylococcus aureus 481/11 after 18 hrs by twofold serial agar dilution technique; details: 481/11, 18 h
[36] = system: Staphylococcus aureus; test: Antibacterial activity against hospital-acquired methicillin-resistant Staphylococcus aureus 450/11 after 18 hrs by twofold serial agar dilution technique; details: 450/11, 18 h
[37] = system: Staphylococcus aureus; test: Antibacterial activity against Staphylococcus aureus ATCC 25923 after 18 hrs by twofold serial agar dilution technique; details: ATCC 25923, 18 h
[38] = system: Candida parapsilosis; test: Antifungal activity against Candida parapsilosis ATCC 22019 after 24 hrs by twofold serial agar dilution technique
[39] = system: Staphylococcus aureus; test: Antibacterial activity against Staphylococcus aureus NCTC 4163 after 18 hrs by twofold serial agar dilution technique; details: NCTC 4163, 18 h
[40] = system: Staphylococcus aureus; test: Antibacterial activity against hospital-acquired methicillin-sensitive Staphylococcus aureus 448/11 after 18 hrs by twofold serial agar dilution technique; details: 448/11, 18 h
[41] = system: Staphylococcus aureus; test: Antibacterial activity against Staphylococcus aureus ATCC 29213 after 18 hrs by twofold serial agar dilution technique; details: ATCC 29213, 18 h
[42] = system: Staphylococcus aureus; test: Antibacterial activity against hospital-acquired methicillin-sensitive Staphylococcus aureus 442/11 after 18 hrs by twofold serial agar dilution technique; details: 442/11, 18 h
[43] = system: Staphylococcus aureus; test: Antibacterial activity against Staphylococcus aureus NCTC 4163 assessed as zone of inhibition at 400 ug/disc after 18 hrs by disc diffusion method; details: NCTC 4163, 18 h, read-out: DIZ

`CC[C@@H](C(=O)[C@@H](C)[C@@H](O)[C@H](C)[C@@H]1O[C@@H]([C@@H](CC)C(=O)Nc2ccccc2)CC[C@@H]1C)[C@H]1O[C@]2(C=C[C@@H](O)[C@]3(CC[C@@](C)([C@H]4CC[C@](O)(CC)[C@H](C)O4)O3)O2)[C@H](C)C[C@@H]1C` was tested, and the Activity [1] was “inactive”, the Activity [2] was “inactive” and the Activity [3] was “inactive”. The MIC [4] was 2 µg/mL (≈ 2.42 µM), the MIC [5] was 4 µg/mL (≈ 4.84 µM) and the MIC [6] was 2 µg/mL (≈ 2.42 µM). It also gave an MIC [7] of 2 µg/mL (≈ 2.42 µM), an MIC [8] of 2 µg/mL (≈ 2.42 µM) and an MIC [9] of 4 µg/mL (≈ 4.84 µM). The MIC [10] was 4 µg/mL (≈ 4.84 µM), the MIC [11] was 2 µg/mL (≈ 2.42 µM) and the zone of inhibition at 400 µg/disc [12] was 22 mm. For the same compound, the MIC [13] was 4 µg/mL (≈ 4.84 µM), the zone of inhibition at 400 µg/disc [14] was 20 mm and the Activity [15] was “inactive”. For the same compound, the zone of inhibition at 400 µg/disc [16] was 21 mm, the Activity [17] was “inactive” and the MIC [18] was 2 µg/mL (≈ 2.42 µM). It also gave an MIC [19] of 4 µg/mL (≈ 4.84 µM), a zone of inhibition at 400 µg/disc [20] of 20 mm and an MIC [21] of 4 µg/mL (≈ 4.84 µM). For the same compound, the Activity [22] was “inactive”, the MIC [23] was 4 µg/mL (≈ 4.84 µM) and the Activity [24] was “inactive”. The Activity [25] was “inactive”, the MIC [26] was 2 µg/mL (≈ 2.42 µM) and the MIC [27] was 4 µg/mL (≈ 4.84 µM). The Activity [28] was “inactive”, the MIC [29] was 2 µg/mL (≈ 2.42 µM) and the Activity [30] was “inactive”. For the same compound, the MIC [31] was 4 µg/mL (≈ 4.84 µM), the zone of inhibition at 400 µg/disc [32] was 18 mm and the MIC [33] was 2 µg/mL (≈ 2.42 µM). For the same compound, the MIC [34] was 2 µg/mL (≈ 2.42 µM), the MIC [35] was 4 µg/mL (≈ 4.84 µM) and the MIC [36] was 4 µg/mL (≈ 4.84 µM). The MIC [37] was 2 µg/mL (≈ 2.42 µM), the Activity [38] was “inactive” and the MIC [39] was 2 µg/mL (≈ 2.42 µM). It also gave an MIC [40] of 2 µg/mL (≈ 2.42 µM), an MIC [41] of 2 µg/mL (≈ 2.42 µM) and an MIC [42] of 2 µg/mL (≈ 2.42 µM). It also gave a zone of inhibition at 400 µg/disc [43] of 19 mm.

In the case of `CC[C@@H](C(=O)[C@@H](C)[C@@H](O)[C@H](C)[C@@H]1O[C@@H]([C@@H](CC)C(=O)NCCCN2CCCCC2)CC[C@@H]1C)[C@H]1O[C@]2(C=C[C@@H](O)[C@]3(CC[C@@](C)([C@H]4CC[C@](O)(CC)[C@H](C)O4)O3)O2)[C@H](C)C[C@@H]1C`, the Activity [1] was “inactive”, the Activity [2] was “inactive” and the Activity [3] was “inactive”. For the same compound, the MIC [4] was 32 µg/mL (≈ 36.6 µM), the MIC [5] was 32 µg/mL (≈ 36.6 µM) and the MIC [6] was 32 µg/mL (≈ 36.6 µM). The MIC [7] was 32 µg/mL (≈ 36.6 µM), the MIC [8] was 32 µg/mL (≈ 36.6 µM) and the MIC [9] was 256 µg/mL (≈ 292 µM). It also gave an MIC [10] of 32 µg/mL (≈ 36.6 µM), an MIC [11] of 128 µg/mL (≈ 146 µM) and a zone of inhibition at 400 µg/disc [12] of 11 mm. For the same compound, the MIC [13] was 64 µg/mL (≈ 73.1 µM), the zone of inhibition at 400 µg/disc [14] was 11 mm and the Activity [15] was “inactive”. For the same compound, the zone of inhibition at 400 µg/disc [16] was 11 mm, the Activity [17] was “inactive” and the MIC [18] was 32 µg/mL (≈ 36.6 µM). The MIC [19] was 64 µg/mL (≈ 73.1 µM), the zone of inhibition at 400 µg/disc [20] was 13 mm and the MIC [21] was 64 µg/mL (≈ 73.1 µM). The Activity [22] was “inactive”, the MIC [23] was 64 µg/mL (≈ 73.1 µM) and the Activity [24] was “inactive”. The Activity [25] was “inactive”, the MIC [26] was 64 µg/mL (≈ 73.1 µM) and the MIC [27] was 64 µg/mL (≈ 73.1 µM). The Activity [28] was “inactive”, the MIC [29] was 64 µg/mL (≈ 73.1 µM) and the Activity [30] was “inactive”. It also gave an MIC [31] of 64 µg/mL (≈ 73.1 µM), a zone of inhibition at 400 µg/disc [32] of 11 mm and an MIC [33] of 128 µg/mL (≈ 146 µM). The MIC [34] was 32 µg/mL (≈ 36.6 µM), the MIC [35] was 64 µg/mL (≈ 73.1 µM) and the MIC [36] was 64 µg/mL (≈ 73.1 µM). For the same compound, the MIC [37] was 128 µg/mL (≈ 146 µM), the Activity [38] was “inactive” and the MIC [39] was 128 µg/mL (≈ 146 µM). For the same compound, the MIC [40] was 32 µg/mL (≈ 36.6 µM), the MIC [41] was 128 µg/mL (≈ 146 µM) and the MIC [42] was 32 µg/mL (≈ 36.6 µM). For the same compound, the zone of inhibition at 400 µg/disc [43] was 12 mm.
